Measured values published in patent US9145415B2, “Nitrogen-containing heterocyclic compound or salt thereof” (FUJIFILM Corporation, priority 2012, dated 2015).
Read-outs that look alike come from different tables or passages of the source.

Key:
[1] = target: T1, human FLT3 protein (FLT3 (WT)) (Homo sapiens, UniProt P36888); test: FLT3 inhibition test (FLT3 enzyme inhibition, time-resolved fluorescence of substrate peptide phosphorylation); type: biochemical; conditions: read-out: FLT3 (WT) enzyme inhibition activity
T1 construct: human FLT3 protein (intracellular region, 564 to 993 aa); GST; purchased Carna Biosciences; host or cells: baculovirus expression system
T1 sequence (P36888 564-993): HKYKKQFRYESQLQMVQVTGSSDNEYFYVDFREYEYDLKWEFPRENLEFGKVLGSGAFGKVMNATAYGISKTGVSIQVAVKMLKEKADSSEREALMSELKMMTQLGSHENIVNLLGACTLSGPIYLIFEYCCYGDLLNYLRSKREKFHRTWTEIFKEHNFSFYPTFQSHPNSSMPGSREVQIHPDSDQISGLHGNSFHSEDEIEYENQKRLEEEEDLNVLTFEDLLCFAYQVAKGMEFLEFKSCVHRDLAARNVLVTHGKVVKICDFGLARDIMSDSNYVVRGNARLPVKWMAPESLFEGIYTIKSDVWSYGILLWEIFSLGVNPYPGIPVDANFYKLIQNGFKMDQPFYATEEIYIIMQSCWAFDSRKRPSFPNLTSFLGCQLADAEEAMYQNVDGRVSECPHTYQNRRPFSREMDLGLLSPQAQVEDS
Method in brief: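 Wild-type human FLT3 (1.2 μg) pre-incubated with compound 15 min at 25° C in 100 mM HEPES pH 7.5, 10 mM MgCl2, 25 mM NaCl, 1 mM DTT. Reaction started with substrate peptide and ATP (final 50 μM), run 30 min at 25° C; phosphorylation read by time-resolved fluorescence.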

MV4-11 cells = test: Leukemia cell proliferation inhibition test (ATPlite), MV4-11; type: cell-based; conditions: Homo sapiens, read-out: MV4-11 cell proliferation inhibition effect
Method in brief: (§1)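 Molm-13 or MV4-11 cells at 10,000 cells/well in RPMI with 10% FBS and pen/strep were exposed to serially diluted compound for 72 h at 37 °C, 5% CO2. Total cellular ATP was read by luciferase luminescence. GI50 was taken relative to 0.1% DMSO control, from duplicates by sigmoid non-linear regression.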

Molm-13 cells = test: Leukemia cell proliferation inhibition test (ATPlite), Molm-13; type: cell-based; conditions: Homo sapiens, read-out: MOLM13 cell proliferation inhibition effect
Method in brief: as §1

[2] = GST-fused human FLT3 (564 to 993 aa), ATP 50 μM
[3] = MV4-11, 72 h, MV4-11, 72 hours culture, ATPlite, GI50 per method
[4] = MOLM-13, 72 h, Molm-13, 72 hours culture, ATPlite, GI50 per method

Molecule `CCNc1nc(Nc2ccc3[nH]ncc3c2)ncc1C#CCCCNC(=O)[C@@H]1CCCN1C(=O)/C=C/CN(C)C` [Compound 10-67, (S,E)-N-(5-(2-((1H-Indazol-5-yl)amino)-4-(ethylamino)pyrimidin-5-yl)-4-pentyn-1-yl)-1-(4-(dimethylamino)-2-butenoyl)pyrrolidine-2-carboxamide] has an IC50 [1, 2] of under 10 nM, an IC50 (MV4-11 cells; [3]) of under 10 nM and an IC50 (Molm-13 cells; [4]) of under 10 nM.
Work on `CCCNc1nc(Nc2ccc3cnn(CCOC)c3c2)ncc1C#CCCCNC(=O)[C@H](C)N(C)C(=O)/C=C/CN(C)C` [Compound 22-11] yielded an IC50 ([1]; FLT3 (WT)) of under 10 nM, an IC50 (MV4-11 cells; MV4-11, MV4-11 cell) of under 10 nM and an IC50 (Molm-13 cells; MOLM-13, MOLM13 cell) of under 10 nM.
Molecule `C[C@@H](C(=O)NCCCC#Cc1cnc(Nc2ccc3[nH]ncc3c2)nc1NC1CC1)N(C)C(=O)/C=C/CN(C)C` [Compound 10-72] has an IC50 [1, 2] of under 10 nM, an IC50 (MV4-11 cells; [3]) of under 10 nM and an IC50 (Molm-13 cells; [4]) of under 10 nM.
In the case of `CCCNc1nc(Nc2ncc(C#N)s2)ncc1C#CCCCNC(=O)[C@H](C)N(C)C(=O)/C=C/CN(C)C` [Compound 22-22], the IC50 ([1]; FLT3 (WT)) is reported as under 10 nM, the IC50 (MV4-11 cells; MV4-11, MV4-11 cell) is reported as under 10 nM and the IC50 (Molm-13 cells; MOLM-13, MOLM13 cell) is reported as under 10 nM.
For `CCCNc1nc(Nc2cccc(OC(F)F)c2)ncc1C#CCCCNC(=O)[C@H](C)N(C)C(=O)/C=C/CN(C)C` [Compound 9-28], the IC50 [1, 2] was under 10 nM, the IC50 (MV4-11 cells; [3]) was under 10 nM and the IC50 (Molm-13 cells; [4]) was under 10 nM.
`CCCNc1nc(Nc2ccc(C#N)cc2)ncc1C#CCCCNC(=O)[C@H]([C@@H](C)O)N(C)C(=O)/C=C/CN(C)C` [Compound 7-63] was tested, and the IC50 [1, 2] was under 10 nM, the IC50 (MV4-11 cells; [3]) was under 10 nM and the IC50 (Molm-13 cells; [4]) was under 10 nM.
`CNc1ncc(C#CCCCNC(=O)[C@H](C)N(C)C(=O)/C=C/CN(C)C)c(Nc2ccc(OC)nc2)n1` [Compound 22-23] was tested, and the IC50 ([1]; FLT3 (WT)) was under 10 nM, the IC50 (MV4-11 cells; MV4-11, MV4-11 cell) was under 10 nM and the IC50 (Molm-13 cells; MOLM-13, MOLM13 cell) was under 10 nM.
With `CCCNc1nc(Nc2ccc(C#N)cc2)ncc1C#CCCCNC(=O)CN(Cc1ccccc1)C(=O)/C=C/CN(C)C` [Compound 7-43] the IC50 [1, 2] was under 10 nM, the IC50 (MV4-11 cells; [3]) was under 10 nM and the IC50 (Molm-13 cells; [4]) was under 10 nM.
In the case of `C=CC(=O)NC(C)(C)C(=O)Nc1cccc(NC(=O)c2cnc(NCCc3ccncc3)nc2NCCC)c1` [Compound 2-4], the IC50 [1, 2] is reported as under 10 nM, the IC50 (MV4-11 cells; [3]) is reported as under 10 nM and the IC50 (Molm-13 cells; [4]) is reported as 10 to 100 nM.
In the case of `COCCNc1nc(Nc2ccc(F)cc2)ncc1C#C[C@@H]1CCC[C@H](NC(=O)[C@H](C)N(C)C(=O)/C=C/CN(C)C)C1` [Compound 22-37], the IC50 ([1]; FLT3 (WT)) is reported as under 10 nM, the IC50 (MV4-11 cells; MV4-11, MV4-11 cell) is reported as under 10 nM and the IC50 (Molm-13 cells; MOLM-13, MOLM13 cell) is reported as under 10 nM.
For `CC(C)Oc1nc(Nc2cccc(F)c2)ncc1C#C[C@@H]1CCC[C@H](NC(=O)[C@H](C)N(C)C(=O)/C=C/CN(C)C)C1` [Compound 21-21], the IC50 [1, 2] was under 10 nM, the IC50 (MV4-11 cells; [3]) was under 10 nM and the IC50 (Molm-13 cells; [4]) was under 10 nM.
For `C=CC(=O)N1CCC(NC(=O)c2cnc(NCCc3ccncc3)nc2NCCC)C1` (stereo not drawn) [Compound 6-16], the IC50 [1, 2] was 10 to 100 nM, the IC50 (MV4-11 cells; [3]) was 100 to 1000 nM and the IC50 (Molm-13 cells; [4]) was 10 to 100 nM.
`C[C@@H](C(=O)NCCCC#Cc1cnc(Nc2ccc(C#N)cc2)nc1-c1ccccc1)N(C)C(=O)/C=C/CN(C)C` [Compound 20-1, (S,E)-N-(1-((5-(2-((4-cyanophenyl)amino)-4-phenylpyrimidin-5-yl)-4-pentyn-1-yl)amino)-1-oxopropan-2-yl)-4-(dimethylamino)-N-methyl-2-butenamide] gave an IC50 [1, 2] of 10 to 100 nM, an IC50 (MV4-11 cells; [3]) of under 10 nM and an IC50 (Molm-13 cells; [4]) of under 10 nM.
In the case of `CCCNc1nc(Nc2ccc(C(N)=O)cc2)ncc1C(=O)Nc1cccc(N2CCN(C(=O)/C=C/CN(C)C)CC2)c1` [Compound 3-31], the IC50 [1, 2] is reported as under 10 nM, the IC50 (MV4-11 cells; [3]) is reported as 100 to 1000 nM and the IC50 (Molm-13 cells; [4]) is reported as 100 to 1000 nM.
`CCCNc1nc(Nc2ccc3[nH]ncc3c2)ncc1C#CCCCNC(=O)[C@@H]1CCCN1C(=O)/C=C/CN(C)C` [Compound 22-62] was tested, and the IC50 ([1]; FLT3 (WT)) was under 10 nM, the IC50 (MV4-11 cells; MV4-11, MV4-11 cell) was under 10 nM and the IC50 (Molm-13 cells; MOLM-13, MOLM13 cell) was under 10 nM.
Work on `C=CC(=O)N(C)CC(=O)NCCCNC(=O)c1cnc(Nc2ccc(C(N)=O)cc2)nc1NCCC` [Compound 5-2] yielded an IC50 [1, 2] of under 10 nM, an IC50 (MV4-11 cells; [3]) of 10 to 100 nM and an IC50 (Molm-13 cells; [4]) of 10 to 100 nM.
For `CCCNc1nc(Nc2ccc3c(c2)c(F)nn3C)ncc1C#CCCCNC(=O)[C@@H]1CCCN1C(=O)/C=C/CN(C)C` [Compound 22-61], the IC50 ([1]; FLT3 (WT)) was under 10 nM, the IC50 (MV4-11 cells; MV4-11, MV4-11 cell) was under 10 nM and the IC50 (Molm-13 cells; MOLM-13, MOLM13 cell) was under 10 nM.
Molecule `C[C@@H](C(=O)NCCCC#Cc1cnc(Nc2ccc(C#N)cc2)nc1N1CCC1)N(C)C(=O)/C=C/CN(C)C` [Compound 10-14] has an IC50 [1, 2] of under 10 nM, an IC50 (MV4-11 cells; [3]) of under 10 nM and an IC50 (Molm-13 cells; [4]) of under 10 nM.
`CCCNc1nc(Nc2ccc3[nH]nc(OC)c3c2)ncc1C#CCCCNC(=O)[C@@H]1CCCN1C(=O)/C=C/CN(C)C` [Compound 22-67] showed an IC50 ([1]; FLT3 (WT)) of under 10 nM, an IC50 (MV4-11 cells; MV4-11, MV4-11 cell) of under 10 nM and an IC50 (Molm-13 cells; MOLM-13, MOLM13 cell) of under 10 nM.
`CCCNc1nc(Nc2cccc(F)c2)ncc1C#CCCCNC(=O)[C@H]1CCCN1C(=O)/C=C/CN(C)C` [Compound 7-94] was tested, and the IC50 [1, 2] was 10 to 100 nM, the IC50 (MV4-11 cells; [3]) was 10 to 100 nM and the IC50 (Molm-13 cells; [4]) was 10 to 100 nM.
For `CCCNc1nc(Nc2ccc(C#N)cc2)ncc1C#CCCCNC(=O)CN(C(=O)/C=C/CN(C)C)C(C)C` [Compound 7-40], the IC50 [1, 2] was under 10 nM, the IC50 (MV4-11 cells; [3]) was under 10 nM and the IC50 (Molm-13 cells; [4]) was under 10 nM.
With `CC[C@@H](C(=O)NCCCC#Cc1cnc(Nc2ccc(F)cc2)nc1Nc1ccc(OC)nc1)N(C)C(=O)/C=C/CN(C)C` [Compound 10-39] the IC50 [1, 2] was under 10 nM, the IC50 (MV4-11 cells; [3]) was under 10 nM and the IC50 (Molm-13 cells; [4]) was under 10 nM.
Work on `C[C@@H](C(=O)NCCCC#Cc1cnc(Nc2cccc(F)c2)nc1NCCCN(C)C)N(C)C(=O)/C=C/CN(C)C` [Compound 10-4] yielded an IC50 [1, 2] of under 10 nM, an IC50 (MV4-11 cells; [3]) of under 10 nM and an IC50 (Molm-13 cells; [4]) of under 10 nM.
Work on `CCCNc1nc(Nc2cccc(F)c2)ncc1C#CCCCNC(=O)CN(C)C(=O)/C=C/CN(C)C` [Compound 7-24, (E)-4-(Dimethylamino)-N-(2-((5-(2-((3-fluorophenyl)amino)-4-(propylamino)pyrimidin-5-yl)-4-pentyn-1-yl)amino)-2-oxoethyl)-N-methyl-2-butenamide] yielded an IC50 [1, 2] of under 10 nM, an IC50 (MV4-11 cells; [3]) of under 10 nM and an IC50 (Molm-13 cells; [4]) of under 10 nM.
In the case of `CCCNc1nc(NCCc2ccncc2)ncc1C#Cc1cccc(NC(=O)[C@H](C)N(C)C(=O)/C=C/CN(C)C)c1` [Compound 8-6], the IC50 [1, 2] is reported as under 10 nM, the IC50 (MV4-11 cells; [3]) is reported as under 10 nM and the IC50 (Molm-13 cells; [4]) is reported as under 10 nM.
With `CCCCCN(CC(=O)NCCCC#Cc1cnc(Nc2ccc(C#N)cc2)nc1NCCC)C(=O)/C=C/CN(C)C` [Compound 7-71] the IC50 [1, 2] was under 10 nM, the IC50 (MV4-11 cells; [3]) was under 10 nM and the IC50 (Molm-13 cells; [4]) was under 10 nM.
`CCCNc1nc(Nc2cnc3c(cnn3CCOC)c2)ncc1C#CCCCNC(=O)[C@H](C)N(C)C(=O)/C=C/CN(C)C` [Compound 22-40] showed an IC50 ([1]; FLT3 (WT)) of under 10 nM, an IC50 (MV4-11 cells; MV4-11, MV4-11 cell) of under 10 nM and an IC50 (Molm-13 cells; MOLM-13, MOLM13 cell) of under 10 nM.
For `CCCNc1nc(Nc2ccc(C#N)cc2)ncc1C#CCCCNC(=O)[C@H](CC)N(C)C(=O)/C=C/CN(C)C` [Compound 7-34], the IC50 [1, 2] was under 10 nM, the IC50 (MV4-11 cells; [3]) was under 10 nM and the IC50 (Molm-13 cells; [4]) was under 10 nM.
Molecule `C=CC(=O)NCC(=O)N1CCC(NC(=O)c2cnc(NCCc3ccncc3)nc2NCCC)CC1` [Compound 6-19] has an IC50 [1, 2] of 10 to 100 nM, an IC50 (MV4-11 cells; [3]) of 10 to 100 nM and an IC50 (Molm-13 cells; [4]) of 10 to 100 nM.
Work on `CCCNc1nc(Nc2ccc(C(N)=O)cc2)ncc1C#CCCCNC(CCOC)(CCOC)CNC(=O)/C=C/CN(C)C` [Compound 8-13] yielded an IC50 [1, 2] of under 10 nM, an IC50 (MV4-11 cells; [3]) of 10 to 100 nM and an IC50 (Molm-13 cells; [4]) of 10 to 100 nM.
`Cc1ccc(Nc2nc(Nc3ccc(C#N)cc3)ncc2C#CCCCNC(=O)[C@H](C)N(C)C(=O)/C=C/CN(C)C)cc1` [Compound 10-23] gave an IC50 [1, 2] of under 10 nM, an IC50 (MV4-11 cells; [3]) of under 10 nM and an IC50 (Molm-13 cells; [4]) of under 10 nM.
